Tested on: protéine tyrosine hydroxylase (TH)
Experiment: Induction of tyrosine hydroxylase in the locus coeruleus of mice (immunodetection and image analysis of brain sections)
Assay type: in vivo, souris Balb/C
Conditions: i.p. 20 mg/kg, single injection, 3 days after, % par rapport à la valeur moyenne du groupe témoin; for quantité de TH au niveau du LC, coupe 1: coupe 1 du LC (sens antérieur vers postérieur); for quantité de TH au niveau du LC, coupe 2: coupe 2 du LC (sens antérieur vers postérieur); for quantité de TH au niveau du LC, coupe 3: coupe 3 du LC (sens antérieur vers postérieur); for quantité de TH au niveau du LC, coupe 4: coupe 4 du LC (sens antérieur vers postérieur); for quantité de TH au niveau du LC, coupe 5: coupe 5 du LC (sens antérieur vers postérieur); for quantité de TH au niveau du LC, coupe 6: coupe 6 du LC (sens antérieur vers postérieur); for quantité de TH au niveau du LC, coupe 7: coupe 7 du LC (sens antérieur vers postérieur); for quantité de TH au niveau du LC, coupe 8: coupe 8 du LC (sens antérieur vers postérieur)
From the text: Il est recherché, parmi les dérivés, ceux qui sont capables d'induire une augmentation de la protéine tyrosine hydroxylase (TH) dans le cerveau de la souris Balb/C, au niveau du locus coeruleus (LC).
Les animaux utilisés sont des souris mâles de la lignée pure Balb/C (Charles River Laboratories), âgées de 7 à 8 semaines au moment du traitement.
Les souris reçoivent une injection unique par voie intrapéritonéale du composé à tester, dissous dans une solution d'HCl 0,04 M (contrôle correspondant : HCl […]) si le composé est suffisamment soluble, ou dans l'huile d'olive 90 % / DMSO 10 % (contrôle correspondant : huile d'olive 90 % / DMSO 10 %) pour les composés insolubles en milieu aqueux.
Trois jours après l'injection de chaque molécule, tous les animaux sont sacrifiés par décapitation. Les cerveaux extraits sont ensuite congelés dans de l'azote liquide et conservés à -80° C.
Des coupes coronales de 8 microns d'épaisseur sont pratiquées le long de l'axe postéro-antérieur du LC et fixées. Les coupes sont transférées sur membranes Immobilon-P. La TH est mesurée par immunodétection et analyse d'image.

SMILES: CN1CCC[C@@H]2C(=O)N3c4ccccc4C[C@H]3[C@@H]21 (racemic) [Exemple 7, (4aSR,11aSR,11bRS)-1-Méthyl-1,2,3,4,4a,11,11a,11b-octahydropyrido[2',3':3,4]pyrrolo[1,2-a]indol-5-one]
- quantité de TH au niveau du LC, coupe 1 (listed as Ex.7, 20 mg/kg): 59%
- quantité de TH au niveau du LC, coupe 2 (listed as Ex.7, 20 mg/kg): 57%
- quantité de TH au niveau du LC, coupe 3 (listed as Ex.7, 20 mg/kg): 57%
- quantité de TH au niveau du LC, coupe 4 (listed as Ex.7, 20 mg/kg): 51%
- quantité de TH au niveau du LC, coupe 5 (listed as Ex.7, 20 mg/kg): 28%
- quantité de TH au niveau du LC, coupe 6 (listed as Ex.7, 20 mg/kg): 23%
- quantité de TH au niveau du LC, coupe 7 (listed as Ex.7, 20 mg/kg): 13%
- quantité de TH au niveau du LC, coupe 8 (listed as Ex.7, 20 mg/kg): 4%

SMILES: N#CCN1CCC[C@@H]2C(=O)N3c4ccccc4C[C@H]3[C@@H]21 (racemic) [Exemple 10, [(4aSR,11aSR,11bRS)-5-Oxo-3,4,4a,11,11a,11b-hexahydro-2H,5H-pyrido[2',3':3,4]pyrrolo[1,2-a]indol-1-yl]acétonitrile]
- quantité de TH au niveau du LC, coupe 1: 58%
- quantité de TH au niveau du LC, coupe 2: 50%
- quantité de TH au niveau du LC, coupe 3: 49%
- quantité de TH au niveau du LC, coupe 4: 47%
- quantité de TH au niveau du LC, coupe 5: 34%
- quantité de TH au niveau du LC, coupe 6: 26%
- quantité de TH au niveau du LC, coupe 7: 18%
- quantité de TH au niveau du LC, coupe 8: 1%

SMILES: O=C1[C@H]2CCCN[C@H]2[C@@H]2Cc3cc(F)ccc3N12 (racemic) [Exemple 24, (4aSR,11aSR,11bRS)-9-Fluoro-1,2,3,4,4a,11,11a,11b-octahydropyrido[2',3':3,4]pyrrolo[1,2-a]indol-5-one]
- quantité de TH au niveau du LC, coupe 1: 51%
- quantité de TH au niveau du LC, coupe 2: 71%
- quantité de TH au niveau du LC, coupe 3: 63%
- quantité de TH au niveau du LC, coupe 4: 55%
- quantité de TH au niveau du LC, coupe 5: 44%
- quantité de TH au niveau du LC, coupe 6: 33%
- quantité de TH au niveau du LC, coupe 7: 6%
- quantité de TH au niveau du LC, coupe 8: 3%

SMILES: Cc1ccc2c(c1)CC1C3=C(CCCN3C)C(=O)N21 (racemic) [Exemple 40, (11aRS)-1,9-Diméthyl-1,2,3,4,11,11a-hexahydropyrido [2',3':3,4] pyrrolo[1,2-a]indol-5-one]
- quantité de TH au niveau du LC, coupe 1: 72%
- quantité de TH au niveau du LC, coupe 2: 96%
- quantité de TH au niveau du LC, coupe 3: 66%
- quantité de TH au niveau du LC, coupe 4: 66%
- quantité de TH au niveau du LC, coupe 5: 58%
- quantité de TH au niveau du LC, coupe 6: 34%
- quantité de TH au niveau du LC, coupe 7: 39%
- quantité de TH au niveau du LC, coupe 8: 4%

SMILES: O=C1C[C@@H]2[C@H]3[C@@H](CCN2Cc2ccccc2)c2ccccc2N13 (racemic) [Exemple 53, (3aRS,10bSR,10cRS)-3-Benzyl-2,3,3a,4,10b,10c-hexahydrobenzo [b]pyrido [2,3,4-gh]pyrrolizin-5(1H)-one]
- quantité de TH au niveau du LC, coupe 1: 82%
- quantité de TH au niveau du LC, coupe 2: 68%
- quantité de TH au niveau du LC, coupe 3: 64%
- quantité de TH au niveau du LC, coupe 4: 71%
- quantité de TH au niveau du LC, coupe 5: 53%
- quantité de TH au niveau du LC, coupe 6: 52%
- quantité de TH au niveau du LC, coupe 7: 32%
- quantité de TH au niveau du LC, coupe 8: 18%

SMILES: C=CCN1CCC[C@@H]2C(=O)N3c4ccccc4C[C@@H]3[C@H]21 [Exemple 6, (4aSR, 11aRS,11bSR)-1-Allyl-1,2,3,4,4a,11,11a,11b-octahydropyrido[2 3'.3':3,4]pyrrolo[1,2-a]indol-5-one]
- quantité de TH au niveau du LC, coupe 1 (listed as Ex.6, 20 mg/kg): 65%
- quantité de TH au niveau du LC, coupe 2 (listed as Ex.6, 20 mg/kg): 62%
- quantité de TH au niveau du LC, coupe 3 (listed as Ex.6, 20 mg/kg): 50%
- quantité de TH au niveau du LC, coupe 4 (listed as Ex.6, 20 mg/kg): 53%
- quantité de TH au niveau du LC, coupe 5 (listed as Ex.6, 20 mg/kg): 41%
- quantité de TH au niveau du LC, coupe 6 (listed as Ex.6, 20 mg/kg): 27%
- quantité de TH au niveau du LC, coupe 8 (listed as Ex.6, 20 mg/kg): 6%

SMILES: CCCN1CC[C@@H]2c3ccccc3N3NC(=O)C[C@H]1[C@@H]23 [Exemple 15, (3aSR,6aRS,10cRS)-4-Propyl-(3a,4,5,6,6a,10c-hexahydro)-3H-1,4,10b-triazafluoranthén-2-one]
- quantité de TH au niveau du LC, coupe 1: 79%
- quantité de TH au niveau du LC, coupe 2: 75%
- quantité de TH au niveau du LC, coupe 3: 72%
- quantité de TH au niveau du LC, coupe 4: 79%
- quantité de TH au niveau du LC, coupe 5: 33%
- quantité de TH au niveau du LC, coupe 6: 27%
- quantité de TH au niveau du LC, coupe 7: 7%
- quantité de TH au niveau du LC, coupe 8: 5%

SMILES: Cc1ccc2c(c1)cc1n2C(=O)C2=C1N(C)CCC2 [Exemple 38, 1,9-Diméthyl-1,2,3,4-tétrahydropyrido[2',3':3,4]pyrrolo[1,2-a]indol-5-one]
- quantité de TH au niveau du LC, coupe 1: 64%
- quantité de TH au niveau du LC, coupe 2: 99%
- quantité de TH au niveau du LC, coupe 3: 76%
- quantité de TH au niveau du LC, coupe 4: 62%
- quantité de TH au niveau du LC, coupe 5: 27%
- quantité de TH au niveau du LC, coupe 6: 14%
- quantité de TH au niveau du LC, coupe 7: -3%
- quantité de TH au niveau du LC, coupe 8: 5%

SMILES: C=CCN1CCC[C@@H]2C(=O)N3c4ccccc4C[C@@H]3[C@H]21 [Exemple 43, (4aS,11aR,11bS)-1-Allyl-1,2,3,4,4a,11,11a,11b-octahydropyrido[2',3':3,4]pyrrolo[1,2-a]indol-5-one]
- quantité de TH au niveau du LC, coupe 1 (listed as Ex.43, 20 mg/kg): 69%
- quantité de TH au niveau du LC, coupe 2 (listed as Ex.43, 20 mg/kg): 88%
- quantité de TH au niveau du LC, coupe 3 (listed as Ex.43, 20 mg/kg): 87%
- quantité de TH au niveau du LC, coupe 4 (listed as Ex.43, 20 mg/kg): 60%
- quantité de TH au niveau du LC, coupe 5 (listed as Ex.43, 20 mg/kg): 36%
- quantité de TH au niveau du LC, coupe 6 (listed as Ex.43, 20 mg/kg): 34%
- quantité de TH au niveau du LC, coupe 7: 9%
- quantité de TH au niveau du LC, coupe 8 (listed as Ex.43, 20 mg/kg): 4%

Reference: patent EP2102204B1, “NEW AMINOPYRROLO[1,2- A]INDOLE ET AMINOPYRIDAZINO[1,6-A]INDOLE DERIVATIVES, METHOD FOR PREPARING THE SAME AND PHARMACEUTICAL COMPOSITIONS CONTAINING THE SAME” (Les Laboratoires Servier, priority 2007, dated 2008)
